Assay results as given in patent US10689363B2 (Merck Patent GmbH, priority 2017, dated 2020).
Values after ≈ are worked out from the molar mass of the structure shown. Read-outs that look alike come from different tables or passages of the source.

Tests used:
Type in all cases: physicochemical
[1] = Water Vapour Sorption isotherm (25° C., DVS-Intrinsic), hygroscopicity acc. to Ph. Eur. 5.11.; details: for water uptake levels: 25° C.
Experimental: (§1) (based on multiple measurements on different samples of form A2). […] DSC scan of form A2 was acquired on a Mettler-Toledo DSC 821 with a heating rate of 50 K/min, using nitrogen purge gas at 50 mL/min. TGA scan of form A2 was acquired on a Mettler-Toledo TGA 851 with a heating rate of 5 K/min, using nitrogen purge gas at 50 mL/min. […] Eur. Criteria (section 5.11.). Water Vapour Sorption isotherm was acquired on a DVS-Intrinsic system from SMS.
(based on multiple measurements on different samples of form NF5). […] Eur. Criteria (section 5.11.). […] Water Vapour Sorption isotherm was acquired on a DVS-Intrinsic system from SMS.
(based on multiple measurements on one sample of form NF6). […] Eur. Criteria (section 5.11.). […] Water Vapour Sorption isotherm was acquired on a DVS-Intrinsic system from SMS.
Eur. Criteria (section 5.11.). […] Water Vapour Sorption isotherm was acquired on a DVS-Intrinsic system from SMS.
as §1, with “Other physical properties of” for “(based on multiple measurements on different samples of”, “form Fumarate-NF1 include the following: ^1H-NMR spectroscopic data reveal a API:Fumarate molar ratio of 1:1.” for “form A2).”, “form Fumarate-NF1” for “form A2”, “of 5” for “of 50”, “5.11.). […]” for “5.11.).”
Other physical properties of form Maleate-NF1 include the following: ^1H-NMR spectroscopic data reveal a API:Maleate molar ratio of 1:1. […] DSC scan of form Maleate-NF1 was acquired on a Mettler-Toledo DSC 821 with a heating rate of 5 K/min, using nitrogen purge gas at 50 mL/min. TGA scan of form Maleate-NF1 was acquired on a Mettler-Toledo TGA 851 with a heating rate of 5 K/min, using nitrogen purge gas at 50 mL/min. […] Form Maleate-NF1 can be classified as non-hygroscopic according to Ph. Eur. Criteria (section 5.11.). […] Water Vapour Sorption isotherm was acquired on a DVS-Intrinsic system from SMS.
Other physical properties of form Citrate-NF1 include the following: ^1H-NMR spectroscopic data reveal a API:Citrate molar ratio of 1:1. […] DSC scan of form Citrate-NF1 was acquired on a Mettler-Toledo DSC 821 with a heating rate of 5 K/min, using nitrogen purge gas at 50 mL/min. TGA scan of form Citrate-NF1 was acquired on a Mettler-Toledo TGA 851 with a heating rate of 5 K/min, using nitrogen purge gas at 50 mL/min. […] Eur. Criteria (section 5.11.). […] Water Vapour Sorption isotherm was acquired on a DVS-Intrinsic system from SMS.
(based on multiple measurements on different samples of form A1). […] DSC scan of form A1 was acquired on a Mettler-Toledo DSC 821 with a heating rate of 50 K/min, using nitrogen purge gas at 50 mL/min. TGA scan of form A1 was acquired on a Mettler-Toledo TGA 851 with a heating rate of 5 K/min, using nitrogen purge gas at 50 mL/min. […] Eur. Criteria (section 5.11.). […] Water Vapour Sorption isotherm was acquired on a DVS-Intrinsic system from SMS. […] Dissolution level of form A1 in Fasted-State Simulated Intestinal Fluid [FaSSIF, pH 6.5] at 37° C. was determined to be approx. 36 μg/mL (after 2 h), and dissolution level of form A1 in Fed-State Simulated Intestinal Fluid [FeSSIF, pH 5.0] at 37° C. was determined to be approx. 214 μg/mL (after 2 h), respectively (see example 11).
All forms were characterized according to standard methods which are found in e.g. Rolf Hilfiker, ‘Polymorphism in the Pharmaceutical Industry’. Wiley-VCH. Weinheim 2006 (Chapter 6: X-Ray Diffraction. Chapter 6: Vibrational Spectroscopy. Chapter 3: Thermal Analysis, Chapter 9: Water Vapour Sorption, and references therein); and H. G. Brittain, ‘Polymorphism in Pharmaceutical Solids. Vol. 95. Marcel Dekker Inc., New York 1999 (Chapter 6 and references therein).

[2] = Mini-dissolution in FaSSIF / FeSSIF medium at 37° C.; details: for Dissolution levels in FaSSIF pH 6.5: FaSSIF pH 6.5, 37° C.; for Dissolution levels in FeSSIF pH 5.0: FeSSIF pH 5.0, 37° C.
Experimental: All dispersions were agitated at 37° C. for up to 2 hours. At defined time intervals (30 min. 60 min, 120 min), sample aliquots of homogeneous dispersions were withdrawn by a syringe, and filtrated via syringe filter adapters (PTFE, 0.45 μm).

[3] = Thermodynamic solubility (24 h, 37° C.) in FaSSIF medium or USP Phosphate buffer; details: for solubility thermodynamic at 24 h: 37 °C, thermodynamic from solid
[4] = 120 min (2 h), listed as form Malonate-NF1
[5] = 120 min (2 h), listed as form Oxalate-NF1
[6] = 120 min (2 h), listed as form Succinate-NF1

hygroscopicity classification according to Ph. Eur. Criteria (section 5.11.) [1] | Dissolution levels in FaSSIF pH 6.5 ([2]; 30 min) [μg/mL] | Dissolution levels in FaSSIF pH 6.5 ([2]; 60 min) [μg/mL] | Dissolution levels in FaSSIF pH 6.5 ([2]; 120 min (2 h)) [μg/mL] | dissolution levels (2 h), factor higher vs form A1 ([2]; FaSSIF) | Dissolution levels in FeSSIF pH 5.0 ([2]; 30 min) [μg/mL] | Dissolution levels in FeSSIF pH 5.0 ([2]; 60 min) [μg/mL] | Dissolution levels in FeSSIF pH 5.0 ([2]; 120 min (2 h)) [μg/mL] | dissolution levels (2 h), factor higher vs form A1 ([2]; FeSSIF) | also measured | Compound
Slightly hygroscopic | 47 | 53 | 75 | ~2 | 651 | 694 | 740 | ~3.5 | hygroscopicity classification according to Ph. Eur. Criteria (section 5.11.) ([1]; listed as form Malonate-NF1): slightly hygroscopic; water uptake levels ([1]; relative humidity range 0-80% rh, listed as form Malonate-NF1): < 0.5 wt %; Dissolution levels in FaSSIF pH 6.5 [2, 4]: approx. 75 μg/mL; Dissolution levels in FeSSIF pH 5.0 [2, 4]: approx. 740 μg/mL | C=CC(=O)N1CCC(CNc2ncnc(N)c2-c2ccc(Oc3ccccc3)cc2)CC1.O=C(O)CCC(=O)O [Malonate-NF1, 1-(4-{[6-Amino-5-(4-phenoxy-phenyl)-pyrimidin-4-ylamino]-methyl}-piperidin-1-yl)-propenone]
slightly hygroscopic | – | – | – | – | – | – | – | – | thermodynamic solubility compared to form A1 (in words) [3]: higher; thermodynamic solubility, factor higher vs form A1 ([3]; FaSSIF): ~1.5; solubility thermodynamic at 24 h ([3]; FaSSIF medium, pH 6.5, fassif, FaSSIF pH 6.5, 37° C., read-out: Thermodynamic solubility FaSSIF pH 6.5): ~33 µg/mL (≈ 76.8 µM); thermodynamic solubility, factor higher vs form A1 ([3]; PBS buffer pH 7.4): ~2; solubility thermodynamic at 24 h ([3]; USP phosphate buffer, pH 7.4, aqueous buffer, USP Phosphate buffer pH 7.4, 37° C., read-out: Thermodynamic solubility PBS buffer 7.4): ~27 µg/mL (≈ 62.9 µM); hygroscopicity classification according to Ph. Eur. Criteria (section 5.11.) ([1]; listed as A2): Slightly hygroscopic; water uptake levels ([1]; relative humidity range 0-98% rh): ≤ 1 wt %; water uptake levels ([1]; relative humidity range 90-98% rh): ≤ 2 wt % | C=CC(=O)N1CCC(CNc2ncnc(N)c2-c2ccc(Oc3ccccc3)cc2)CC1 [form A2, 1-(4-{[6-Amino-5-(4-phenoxy-phenyl)-pyrimidin-4-ylamino]-methyl}-piperidin-1-yl)-propenone]
Slightly hygroscopic | – | – | – | – | – | – | – | – | hygroscopicity classification according to Ph. Eur. Criteria (section 5.11.) ([1]; listed as form Fumarate-NF1): slightly hygroscopic; water uptake levels ([1]; relative humidity range 0-80% rh, listed as form Fumarate-NF1): < 0.5 wt % | C=CC(=O)N1CCC(CNc2ncnc(N)c2-c2ccc(Oc3ccccc3)cc2)CC1.O=C(O)CCC(=O)O [Fumarate-NF1, 1-(4-{[6-Amino-5-(4-phenoxy-phenyl)-pyrimidin-4-ylamino]-methyl}-piperidin-1-yl)-propenone]
Non-hygroscopic | – | – | – | – | – | – | – | – | hygroscopicity classification according to Ph. Eur. Criteria (section 5.11.) ([1]; listed as form Maleate-NF1): non-hygroscopic; water uptake levels ([1]; relative humidity range 0-80% rh, listed as form Maleate-NF1): < 0.5 wt % | C=CC(=O)N1CCC(CNc2ncnc(N)c2-c2ccc(Oc3ccccc3)cc2)CC1.O=C(O)CCC(=O)O [Maleate-NF1, 1-(4-{[6-Amino-5-(4-phenoxy-phenyl)-pyrimidin-4-ylamino]-methyl}-piperidin-1-yl)-propenone]
Slightly hygroscopic | 50 | 54 | 58 | ~1.5 | 600 | 700 | 740 | ~3.5 | hygroscopicity classification according to Ph. Eur. Criteria (section 5.11.) ([1]; listed as form Oxalate-NF1): slightly hygroscopic; water uptake levels ([1]; relative humidity range 0-80% rh, listed as form Oxalate-NF1): < 1.0 wt %; Dissolution levels in FaSSIF pH 6.5 [2, 5]: approx. 58 μg/mL; Dissolution levels in FeSSIF pH 5.0 [2, 5]: approx. 740 μg/mL | C=CC(=O)N1CCC(CNc2ncnc(N)c2-c2ccc(Oc3ccccc3)cc2)CC1.O=C(O)CCC(=O)O [Oxalate-NF1, 1-(4-{[6-Amino-5-(4-phenoxy-phenyl)-pyrimidin-4-ylamino]-methyl}-piperidin-1-yl)-propenone]
Slightly hygroscopic | 92 | 95 | 100 | ~3 | 625 | 708 | 743 | ~3.5 | hygroscopicity classification according to Ph. Eur. Criteria (section 5.11.) ([1]; listed as form Succinate-NF1): slightly hygroscopic; water uptake levels ([1]; relative humidity range 0-80% rh, listed as form Succinate-NF1): ≤ 2.0 wt %; Dissolution levels in FaSSIF pH 6.5 [2, 6]: approx. 100 μg/mL; Dissolution levels in FeSSIF pH 5.0 [2, 6]: approx. 743 μg/mL | C=CC(=O)N1CCC(CNc2ncnc(N)c2-c2ccc(Oc3ccccc3)cc2)CC1.O=C(O)CCC(=O)O [Succinate-NF1, 1-(4-{[6-Amino-5-(4-phenoxy-phenyl)-pyrimidin-4-ylamino]-methyl}-piperidin-1-yl)-propenone]
Slightly hygroscopic | – | – | – | – | – | – | – | – | hygroscopicity classification according to Ph. Eur. Criteria (section 5.11.) ([1]; listed as form Citrate-NF1): slightly hygroscopic; water uptake levels ([1]; relative humidity range 0-80% rh, listed as form Citrate-NF1): < 2.0 wt % | C=CC(=O)N1CCC(CNc2ncnc(N)c2-c2ccc(Oc3ccccc3)cc2)CC1.O=C(O)CCC(=O)O [Citrate-NF1, 1-(4-{[6-Amino-5-(4-phenoxy-phenyl)-pyrimidin-4-ylamino]-methyl}-piperidin-1-yl)-propenone]
